Measurements published in publication PMC7845594, “Novel Immune Modulators Enhance Caenorhabditis elegans Resistance to Multiple Pathogens” (mSphere, 2021).

Tested on: C. elegans transcriptome
Assay: Transcriptome profiling (Affymetrix microarrays), differentially expressed genes
Format: in vivo, Caenorhabditis elegans
Settings: downregulated genes
Experimental: To gain additional insight into the effect of LK molecules on C. elegans, young-adult, wild-type worms were treated with each drug at 100 µM for 8 h in the absence of pathogen. RNA was collected, and transcriptome profiling was performed.
Data were determined using Affymetrix microarrays, as described in Materials and Methods. Download Table S3, XLSX file, 0.07 MB.
Transcriptome profiling was performed on ∼6,000 wild-type, young adult worms incubated with either LK molecules or DMSO for 8 h. RNA isolation was performed using TRIzol extraction, followed by cleanup using RNeasy columns according to the manufacturer’s protocol. Each condition was analyzed in triplicate. Microarray data have been deposited in the GEO database, accession number GSE137516. […] Clustering and generation of the heat map was performed using Cluster 3.0 ([98]) and Treeview ([99]), respectively. Fold change of genes were normalized to average fold change of that gene over all clustered conditions. Genes and conditions were clustered using Euclidean distance and average linkages. […] Microarray data for non-LK molecules were collected from GEO omnibus. WormEXP was used as a secondary method for confirming statistical significance of potential pathways stimulated by each of the LK molecules ([100]). Gene ontologies were generated using DAVID ([101], [102]).

SMILES: CCN(CC)/N=N/c1ccc(C(=O)O)cc1 [LK35]
- Fold Change (Gene C29F4.2, Affy_ID 190884_at): 0.3931
- Fold Change (Gene C32E8.7, Affy_ID 188220_at): 0.2903
- Fold Change (Gene C33F10.9, Affy_ID 172834_x_at): 0.1897
- Fold Change (Gene C34F11.3, Affy_ID 189114_at): 0.4428
- Fold Change (Gene C34F11.4, Affy_ID 172885_x_at): 0.1632
- Fold Change (Gene C34F11.6, Affy_ID 172896_x_at): 0.1976
- Fold Change (Gene C35A5.6, Affy_ID 179396_at): 0.1353
- Fold Change (Gene C35D10.11, Affy_ID 172630_x_at): 0.1209
- Fold Change (Gene C44C8.6, Affy_ID 189233_s_at): 0.3734
- Fold Change (Gene C49F5.1, Affy_ID 174812_at): 0.237
- Fold Change (Gene C50F7.5, Affy_ID 183381_at): 0.3778
- Fold Change (Gene CTEL54X.1, Affy_ID 185910_at): 0.2757
- Fold Change (Gene D1086.2, Affy_ID 177478_at): 0.1132
- Fold Change (Gene D1086.5, Affy_ID 177666_at): 0.2318
- Fold Change (Gene D2024.7, Affy_ID 187178_s_at): 0.4973
- Fold Change (Gene D2045.8, Affy_ID 191879_at): 0.4257
- Fold Change (Gene D2089.3, Affy_ID 178891_at): 0.3977
- Fold Change (Gene F02D8.4, Affy_ID 189325_at): 0.3853
- Fold Change (Gene F07A11.5, Affy_ID 188623_at): 0.4237
- Fold Change (Gene F08B6.4, Affy_ID 171924_x_at): 0.4112
- Fold Change (Gene F08G2.1, Affy_ID 192280_s_at): 0.181
- Fold Change (Gene F53A9.8, Affy_ID 180612_s_at): 0.2385
- Fold Change (Gene F53F4.13, Affy_ID 182491_at): 0.306
- Fold Change (Gene F54F11.2, Affy_ID 191753_at): 0.2877
- Fold Change (Gene F55F3.2, Affy_ID 189534_at): 0.2425
- Fold Change (Gene F55G1.3, Affy_ID 172702_x_at): 0.3727
- Fold Change (Gene F58A4.7, Affy_ID 171841_x_at): 0.2717
- Fold Change (Gene F58A6.8, Affy_ID 172889_x_at): 0.1742
- Fold Change (Gene F58A6.9, Affy_ID 172743_x_at): 0.2732
- Fold Change (Gene F58B3.1, Affy_ID 178236_s_at): 0.3338
- Fold Change (Gene F58G1.4, Affy_ID 177978_at): 0.2272
- Fold Change (Gene F59B2.5, Affy_ID 187071_at): 0.4863
- Fold Change (Gene H02I12.6, Affy_ID 172891_x_at): 0.4113
- Fold Change (Gene H12C20.3, Affy_ID 192782_at): 0.1769
- Fold Change (Gene H12D21.1, Affy_ID 172431_x_at): 0.176
- Fold Change (Gene H36L18.2, Affy_ID 179787_at): 0.4486
- Fold Change (Gene K02C4.2, Affy_ID 178299_at): 0.2893
- Fold Change (Gene K02D7.1, Affy_ID 189003_s_at): 0.4157
- Fold Change (Gene K03H1.10, Affy_ID 179875_at): 0.3898
- Fold Change (Gene K03H6.2, Affy_ID 183309_at): 0.3456
- Fold Change (Gene K05F1.2, Affy_ID 172815_x_at): 0.2488
- Fold Change (Gene K05F1.7, Affy_ID 172904_x_at): 0.1812
- Fold Change (Gene K06C4.12, Affy_ID 172685_x_at): 0.3916
- Fold Change (Gene K07E8.3, Affy_ID 180256_at): 0.04574
- Fold Change (Gene K07F5.2, Affy_ID 172852_x_at): 0.1696
- Fold Change (Gene K07F5.3, Affy_ID 172907_x_at): 0.1824
- Fold Change (Gene K07F5.5, Affy_ID 172245_x_at): 0.3189
- Fold Change (Gene K08F4.8, Affy_ID 172934_x_at): 0.1666
- Fold Change (Gene K08F8.4, Affy_ID 193649_s_at): 0.4028
- Fold Change (Gene K10F12.4, Affy_ID 185815_at): 0.3079
- Fold Change (Gene M01D7.5, Affy_ID 173242_s_at): 0.2324
- Fold Change (Gene M05D6.7, Affy_ID 193914_at): 0.3025
- Fold Change (Gene M6.1, Affy_ID 193073_at): 0.2608
- Fold Change (Gene M18.1, Affy_ID 173632_s_at): 0.1786
- Fold Change (Gene M163.1, Affy_ID 177298_at): 0.4161
- Fold Change (Gene R01E6.3, Affy_ID 189628_at): 0.3449
- Fold Change (Gene R03E9.1, Affy_ID 193723_s_at): 0.1079
- Fold Change (Gene R04B5.9, Affy_ID 191440_at): 0.2481
- Fold Change (Gene R05F9.3, Affy_ID 172725_x_at): 0.3857
- Fold Change (Gene R05F9.8, Affy_ID 172724_x_at): 0.1853
- Fold Change (Gene R05G6.10, Affy_ID 192058_at): 0.3689
- Fold Change (Gene R07B1.3, Affy_ID 190822_s_at): 0.3753
- Fold Change (Gene R12C12.1, Affy_ID 190616_at): 0.3455
- Fold Change (Gene R12E2.9, Affy_ID 180698_s_at): 0.2329
- Fold Change (Gene R52.3, Affy_ID 177369_at): 0.433
- Fold Change (Gene T01C3.4, Affy_ID 188106_at): 0.01178
- Fold Change (Gene T01D3.6, Affy_ID 194060_s_at): 0.3484
- Fold Change (Gene T02B11.3, Affy_ID 174051_s_at): 0.4315
- Fold Change (Gene T03D8.2, Affy_ID 190280_at): 0.4443
- Fold Change (Gene T07C4.4, Affy_ID 178149_s_at): 0.4269
- Fold Change (Gene T07G12.5, Affy_ID 188496_s_at): 0.1018
- Fold Change (Gene T08B1.6, Affy_ID 192296_at): 0.1305
- Fold Change (Gene T08B2.12, Affy_ID 184685_s_at): 0.1145
- Fold Change (Gene T09F5.9, Affy_ID 188947_at): 0.2413
- Fold Change (Gene T15B7.9, Affy_ID 182858_at): 0.3683
- Fold Change (Gene T19H5.4, Affy_ID 186755_s_at): 0.3412
- Fold Change (Gene T20B3.2, Affy_ID 188278_s_at): 0.3943
- Fold Change (Gene T20D4.11, Affy_ID 184438_at): 0.05764
- Fold Change (Gene T20G5.7, Affy_ID 172218_x_at): 0.3082
- Fold Change (Gene T22H2.6, Affy_ID 180962_s_at): 0.3753
